The text below walks through data of patent US12458818B2, “Anti-trophoblast cell surface antigen 2 (TROP2) antibodies and antibody drug conjugates comprising same” (CSPC MEGALITH BIOPHARMACEUTICAL CO., LTD., priority 2019, dated 2025).

In one experiment the test system is HCC38. The experiment is described as follows: In vitro cytotoxicity assay, HCC38. The class given is cell-based. Particulars: HCC38 TROP2+ human mammary ductal carcinoma cell line. The protocol:
(§1) Additional in vitro cytotoxicity assays were performed to test the ability of DP002-HC1LC1-ADC to inhibit the growth of MDA-MB-468 (a TROP2^+ human breast adenocarcinoma cell line) and HCC38 (a TROP2^+ human mammary ductal carcinoma cell line).

The next experiment relates to BxPC-3. Kind of experiment: In vitro cytotoxicity assay, BxPC-3. The class given is cell-based. Particulars: BxPC-3 human pancreatic adenocarcinoma cell line. As to the method: (§2) DP002-HC1LC1-ADC is an antibody-drug conjugate comprising anti-TROP antibody DP002-HC1LC1, which comprises HCl (SEQ ID NO: 52) and LC 1 (SEQ ID NO: 58), conjugated to monomethyl auristatin E (MMAE) at a drug-antibody ratio (DAR) of 2. A DP002-HC1LC1-ADC was prepared using a conjugation method described in WO 2015/191883. A series of in vitro cytotoxicity assays were performed to assess the ability of DP002-HC1LC1-ADC to inhibit the growth of the following TROP2 expressing cancer cell lines: HCC1954 (a human breast carcinoma cell line), BxPC-3 (a human pancreatic adenocarcinoma cell line), and NCI-N87 (a human gastric carcinoma cell line). Experiments using staurospirone, a positive apoptosis control, and anti-TROP2 antibody DP002-HC4LC5, which comprises HC4 (SEQ ID NO: 55) and LC5 (SEQ ID NO: 62), were performed in parallel.

In the next experiment the test system is NCI-N87. Kind of experiment: In vitro cytotoxicity assay, NCI-N87. Particulars: NCI-N87 human gastric carcinoma cell line. The class given is cell-based. The protocol: as §2
A further experiment has as its system MDA-MB-468. Kind of experiment: In vitro cytotoxicity assay, MDA-MB-468. Particulars: MDA-MB-468 TROP2+ human breast adenocarcinoma cell line. It is filed as cell-based. The protocol:
as §1

The next experiment has as its system HCC1954. Kind of experiment: In vitro cytotoxicity assay, HCC1954. It is filed as cell-based. Particulars: HCC1954 human breast carcinoma cell line. The protocol:
as §2

The next experiment has as its target T1, human TROP2 (Homo sapiens, UniProt P09758).
T1 sequence (P09758 27-323): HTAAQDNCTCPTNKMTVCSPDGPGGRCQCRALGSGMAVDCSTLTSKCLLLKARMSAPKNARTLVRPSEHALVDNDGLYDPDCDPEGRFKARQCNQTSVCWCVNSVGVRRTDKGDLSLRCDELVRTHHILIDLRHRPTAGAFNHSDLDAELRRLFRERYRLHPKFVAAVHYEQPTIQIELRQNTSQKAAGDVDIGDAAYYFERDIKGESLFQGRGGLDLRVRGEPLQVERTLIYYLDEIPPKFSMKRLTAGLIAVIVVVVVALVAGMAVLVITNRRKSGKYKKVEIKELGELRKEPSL
The experiment is described as follows: Surface plasmon resonance kinetics and affinities (Table 8B). Particulars: SPR, analyte TROP2. It is filed as binding. As to the method: Surface plasmon resonance (SPR) experiments were performed to determine the kinetics and affinities of certain antibodies shown in Table 8A.
(In SPR one partner is held on a chip, and binding of the other changes the refractive index at the surface.)

The next experiment relates to SKBR3 cells. Kind of experiment: FACS internalization of anti-TROP2 antibodies by SKBR3 cells. Particulars: 20 nM antibody mixed with 60 nM pHAb-labelled secondary antibody, overnight incubation. It is filed as cell-based, human. As to the method:
FACS experiments were performed to verify that antibodies 1B3, 15D9, 15A10, 17B6, and 17D1 were internalized by SKBR3 cells. SKBR3 is a TROP2-expressing human breast carcinoma cell line. Briefly, 1.2×10^5 SKBR3 cells were seeded into each 12-well plates and cultured overnight. 300 μL of 20 nM control antibody, 1B3, 15D9, 15A10, 17B6, or 17D1 (in DMEM-10) were mixed with 300 μL 60 nM pHAb-labelled secondary antibody for 15 minutes at room temperature in the dark. The labeled antibodies mixtures were added to the SKBR3 cells and incubated overnight. Following overnight incubation, the SKBR3 cells were trypsinized, washed twice with 1% BSA/PBS, and analyzed via flow cytometry.

For the molecule `CN[C@@H]1C[C@H]2O[C@@](C)([C@@H]1OC)n1c3ccccc3c3c4c(c5c6ccccc6n2c5c31)C(=O)NC4` [Staurosprione, staurospirone], the 50% inhibitory concentration (IC50) in the experiment with HCC38 was 4.26 nM; with BxPC-3 it was 5.37 nM; in the experiment on NCI-N87, 9.31 nM; in the experiment with MDA-MB-468, 14.7 nM; in the experiment with HCC1954, 21.7 nM. The Max % inhibition was 99.44% in the experiment with HCC38; 98.02% in the experiment on BxPC-3; “greater than 93%” in the experiment with BxPC-3 (listed as staurospirone); 93.44% in the experiment with NCI-N87; “greater than 93%” in the experiment on NCI-N87 (listed as staurospirone); 92.38% with MDA-MB-468. Besides, the values for the Max % inhibition in the experiment on HCC1954 and in the experiment on HCC1954 (listed as staurospirone) were 95.12% and “greater than 93%”, respectively.
Turning to “Control: biosimilar of the anti-TROP2 antibody sacituzumab [reference compound]”, in the experiment with human TROP2, the dissociation constant Kd turned out to be 0.4 nM, the Rmax amounted to 50.7, the “ka” value is 511000 M⁻¹ s⁻¹ and the “kd” value turned out to be 0.000204 s⁻¹.

B1: 1B3: mouse anti-human TROP2 antibody, VH SEQ ID NO: 22, VL SEQ ID NO: 27 (antibody, V domains shown)
VH: QVQLQQSGAELVRPGVSVKISCKGSGYTFTDYSINWVKQSHAKSLEWIGVISTYYGDASYNQKFKGKATMTVDKSSSTAYMELARLTSEDSAIYYCARYGDGYNQFDYWGQGTTLTVSS
VL: DIVLTQSPASLAVSLGQRATISCRVSESVDSYGNNFMHWYQQKPGQPPKLLIYRASNLESGVPARFSGSGSGTDFTLTINPMEADDVATYYCQQSYEDPYTFGGGTKLEIK
B1: in the experiment with SKBR3 cells, the “internalization by SKBR3 cells (flow cytometry)” value (shortened to “internalization by SKBR3 cells”) is listed as “internalized”.

B2: 17D1: mouse anti-human TROP2 antibody, VH SEQ ID NO: 25, VL SEQ ID NO: 30 (antibody, V domains shown)
VH: QVQLQQSGAELVRPGVSVKISCKGSGYTFTDYSIHWVKQSHAKSLEWIGLISTYYGDATYTQKFKGKATMTVDKSSSTAYMELARLTSEDSAIYYCALLGAYNYFDYWGQGTTLTVSS
VL: DIVLTQSPASLAVSLGQRATISCRASESVDSYGNSFMHWYQQKPGQPPKLLVYRASNLESGIPARFSGSGSRTDFTLTINPVEADDIATYYCQQSYEDPPTFGGGTKLEIK
For B2, in the experiment on SKBR3 cells, the “internalization by SKBR3 cells” value was “internalized”.

B3: 15A10: mouse anti-human TROP2 antibody, VH SEQ ID NO: 23, VL SEQ ID NO: 28 (antibody, V domains shown)
VH: EVQLEQSGPGLVQPSQSLSITCTVSGFSLTRYGVHWVRQSPGRSLEWLGVIWSGGNTDYNAAFISRLTITKDNSKSQVFFKMNSLQPNDTGVYYCAREDRYVGEFAYWGQGTLVTVSA
VL: DIVLTQSTASLAVSLGQRATISCRASESVDSYGNSFIHWYQQKPGQPPKLLIYRASNLESGIPARFSGSGSRTDFTLTINPVEADDVATYYCQQSNEDPRTFGGGTKLEIK
For the molecule B3, the “internalization by SKBR3 cells” value in the experiment with SKBR3 cells was “internalized”.

B4: 15D9: mouse anti-human TROP2 antibody, VH SEQ ID NO: 24, VL SEQ ID NO: 29 (antibody, V domains shown)
VH: QVQLQQSGAELVRPGVSVKISCKGSGYTFTDYSIHWVKQSHAKSLEWIGVISSYYGDATYNQKFKGKATMTVDKSSSTAYMELARLTSEDSAIYYCALLGAYNYFDYWGQGTTLTVSS
VL: DIVLTQSPASLAVSLGQRATISCRASESVDSYGNSFMHWYQQKPGQPPKLLVYRASNLESGIPARFSGSGSRTDFTLTINPVEADDVATYYCQQSYEDPPTFGGGTKLEIK
As to B4, the “internalization by SKBR3 cells” value in the experiment with SKBR3 cells was “internalized”.

B5: 17B6: mouse anti-human TROP2 antibody, VH SEQ ID NO: 26, VL SEQ ID NO: 31 (antibody, V domains shown)
VH: QVQLQQSGAELVRPGVSVKISCKGSGYTFTDYGMNWVKQSHAKSLEWIGVISTFYGDANYNQKFKGKATMTVDKSSSTAYMELARLTSEDSAIYYCARRGNYDSMDYWGQGTSVTVSS
VL: DIVLTQSPVFLAVSLGQRATISCRASESVDSYGNSFMHWYQQKPGQPPKLLIYRASNLESGIPARFSGSGSRTDFTLTINPVEADDVETYYCQQSYEDPPTFGGGTKLEIE
On to B5, for which the “internalization by SKBR3 cells” value in the experiment on SKBR3 cells is “internalized”.

Broadly, the IC50 is the midpoint of a concentration-inhibition curve. A low value points to greater potency. As a reminder, the Kd is the constant that tells how readily two partners part at equilibrium. Read a high Kd as weaker binding.
